Laboratory results from PubChem BioAssay (NCI).
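Here, GI50 denotes the concentration required for 50% inhibition of growth. TGI: total growth inhibition.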

Experiments:
Assay in all cases: inhibition of tumour cell growth, NCI panel, 384-well format
KM12 colon = tested on: KM12 colon
MALME-3M melanoma = tested on: MALME-3M melanoma
SN12C renal = tested on: SN12C renal
SF-539 CNS = tested on: SF-539 CNS
NCI-H460 NSCLC = tested on: NCI-H460 NSCLC
PC-3 prostate = tested on: PC-3 prostate
BT-549 breast = tested on: BT-549 breast
MCF7 breast = tested on: MCF7 breast
DU-145 prostate = tested on: DU-145 prostate
RXF 393 renal = tested on: RXF 393 renal
LOX IMVI melanoma = tested on: LOX IMVI melanoma
TK-10 renal = tested on: TK-10 renal
NCI-H522 lung = tested on: NCI-H522 lung
M14 melanoma = tested on: M14 melanoma
T-47D breast = tested on: T-47D breast
COLO 205 colon = tested on: COLO 205 colon
IGROV1 ovarian = tested on: IGROV1 ovarian
NCI-H322M lung = tested on: NCI-H322M lung
CAKI-1 renal = tested on: CAKI-1 renal
A498 renal = tested on: A498 renal
UACC-62 melanoma = tested on: UACC-62 melanoma
A549 NSCLC = tested on: A549 NSCLC
UACC-257 melanoma = tested on: UACC-257 melanoma
EKVX NSCLC = tested on: EKVX NSCLC
OVCAR-3 ovarian = tested on: OVCAR-3 ovarian
HCT-15 colon = tested on: HCT-15 colon
OVCAR-5 ovarian = tested on: OVCAR-5 ovarian
HCT-116 colon = tested on: HCT-116 colon
SK-MEL-28 melanoma = tested on: SK-MEL-28 melanoma
SF-295 CNS = tested on: SF-295 CNS
RPMI-8226 leukemia = tested on: RPMI-8226 leukemia
HOP-92 NSCLC = tested on: HOP-92 NSCLC
MOLT-4 leukemia = tested on: MOLT-4 leukemia
NCI-H23 lung = tested on: NCI-H23 lung
U251 glioblastoma = tested on: U251 glioblastoma
NCI-H226 lung = tested on: NCI-H226 lung
HOP-62 NSCLC = tested on: HOP-62 NSCLC
OVCAR-8 ovarian = tested on: OVCAR-8 ovarian
MDA-MB-468 breast = tested on: MDA-MB-468 breast
SR leukemia = tested on: SR leukemia
MDA-MB-435 melanoma = tested on: MDA-MB-435 melanoma
SNB-75 CNS = tested on: SNB-75 CNS
SK-OV-3 ovarian = tested on: SK-OV-3 ovarian
HS 578T breast = tested on: HS 578T breast
HCC-2998 colon = tested on: HCC-2998 colon
HT29 colon = tested on: HT29 colon
SNB-19 CNS = tested on: SNB-19 CNS
SK-MEL-5 melanoma = tested on: SK-MEL-5 melanoma
SF-268 CNS = tested on: SF-268 CNS
ACHN renal = tested on: ACHN renal
HL-60(TB) leukemia = tested on: HL-60(TB) leukemia
NCI/ADR-RES ovarian = tested on: NCI/ADR-RES ovarian
OVCAR-4 ovarian = tested on: OVCAR-4 ovarian
CCRF-CEM leukemia = tested on: CCRF-CEM leukemia
UO-31 renal = tested on: UO-31 renal
SW-620 colon = tested on: SW-620 colon

CCc1cnn2c(NCc3ccc[n+]([O-])c3)cc(N3CCCC[C@H]3CCO)nc12
GI50 (KM12 colon): < 0.01 µM
TGI (KM12 colon): > 100 µM
GI50 (MALME-3M melanoma): < 0.01 µM
TGI (MALME-3M melanoma): < 0.01 µM
GI50 (SN12C renal): < 0.01 µM
TGI (SN12C renal): < 0.01 µM
GI50 (SF-539 CNS): < 0.01 µM
TGI (SF-539 CNS): < 0.01 µM
GI50 (NCI-H460 NSCLC): < 0.01 µM
TGI (NCI-H460 NSCLC): < 0.01 µM
GI50 (PC-3 prostate): < 0.01 µM
TGI (PC-3 prostate): < 0.01 µM
GI50 (BT-549 breast): < 0.01 µM
TGI (BT-549 breast): < 0.01 µM
GI50 (MCF7 breast): < 0.01 µM
TGI (MCF7 breast): > 100 µM
GI50 (DU-145 prostate): < 0.01 µM
TGI (DU-145 prostate): < 0.01 µM
GI50 (RXF 393 renal): < 0.01 µM
TGI (RXF 393 renal): < 0.01 µM
GI50 (LOX IMVI melanoma): < 0.01 µM
TGI (LOX IMVI melanoma): < 0.01 µM
GI50 (TK-10 renal): < 0.01 µM
TGI (TK-10 renal): < 0.01 µM
GI50 (NCI-H522 lung): < 0.01 µM
TGI (NCI-H522 lung): < 0.01 µM
GI50 (M14 melanoma): < 0.01 µM
TGI (M14 melanoma): < 0.01 µM
GI50 (T-47D breast): < 0.01 µM
TGI (T-47D breast): > 100 µM
GI50 (COLO 205 colon): < 0.01 µM
TGI (COLO 205 colon): < 0.01 µM
GI50 (IGROV1 ovarian): < 0.01 µM
TGI (IGROV1 ovarian): < 0.01 µM
GI50 (NCI-H322M lung): < 0.01 µM
TGI (NCI-H322M lung): < 0.01 µM
GI50 (CAKI-1 renal): < 0.01 µM
TGI (CAKI-1 renal): > 100 µM
GI50 (A498 renal): < 0.01 µM
TGI (A498 renal): < 0.01 µM
GI50 (UACC-62 melanoma): < 0.01 µM
TGI (UACC-62 melanoma): < 0.01 µM
GI50 (A549 NSCLC): < 0.01 µM
TGI (A549 NSCLC): > 100 µM
GI50 (UACC-257 melanoma): < 0.01 µM
TGI (UACC-257 melanoma): < 0.01 µM
GI50 (EKVX NSCLC): < 0.01 µM
TGI (EKVX NSCLC): < 0.01 µM
GI50 (OVCAR-3 ovarian): < 0.01 µM
TGI (OVCAR-3 ovarian): < 0.01 µM
GI50 (HCT-15 colon): < 0.01 µM
TGI (HCT-15 colon): 0.0218 µM
GI50 (OVCAR-5 ovarian): < 0.01 µM
TGI (OVCAR-5 ovarian): < 0.01 µM
GI50 (HCT-116 colon): < 0.01 µM
TGI (HCT-116 colon): > 100 µM
GI50 (SK-MEL-28 melanoma): < 0.01 µM
TGI (SK-MEL-28 melanoma): < 0.01 µM
GI50 (SF-295 CNS): < 0.01 µM
TGI (SF-295 CNS): > 100 µM
GI50 (RPMI-8226 leukemia): < 0.01 µM
TGI (RPMI-8226 leukemia): < 0.01 µM
GI50 (HOP-92 NSCLC): < 0.01 µM
TGI (HOP-92 NSCLC): > 100 µM
GI50 (MOLT-4 leukemia): < 0.01 µM
TGI (MOLT-4 leukemia): < 0.01 µM
GI50 (NCI-H23 lung): < 0.01 µM
TGI (NCI-H23 lung): < 0.01 µM
GI50 (U251 glioblastoma): < 0.01 µM
TGI (U251 glioblastoma): < 0.01 µM
GI50 (NCI-H226 lung): < 0.01 µM
TGI (NCI-H226 lung): < 0.01 µM
GI50 (HOP-62 NSCLC): < 0.01 µM
TGI (HOP-62 NSCLC): < 0.01 µM
GI50 (OVCAR-8 ovarian): < 0.01 µM
TGI (OVCAR-8 ovarian): < 0.01 µM
GI50 (MDA-MB-468 breast): < 0.01 µM
TGI (MDA-MB-468 breast): < 0.01 µM
GI50 (SR leukemia): < 0.01 µM
TGI (SR leukemia): < 0.01 µM
GI50 (MDA-MB-435 melanoma): < 0.01 µM
TGI (MDA-MB-435 melanoma): < 0.01 µM
GI50 (SNB-75 CNS): < 0.01 µM
TGI (SNB-75 CNS): < 0.01 µM
GI50 (SK-OV-3 ovarian): < 0.01 µM
TGI (SK-OV-3 ovarian): > 100 µM
GI50 (HS 578T breast): < 0.01 µM
TGI (HS 578T breast): < 0.01 µM
GI50 (HCC-2998 colon): < 0.01 µM
TGI (HCC-2998 colon): < 0.01 µM
GI50 (HT29 colon): < 0.01 µM
TGI (HT29 colon): < 0.01 µM
GI50 (SNB-19 CNS): < 0.01 µM
TGI (SNB-19 CNS): < 0.01 µM
GI50 (SK-MEL-5 melanoma): < 0.01 µM
TGI (SK-MEL-5 melanoma): < 0.01 µM
GI50 (SF-268 CNS): < 0.01 µM
TGI (SF-268 CNS): < 0.01 µM
GI50 (ACHN renal): < 0.01 µM
TGI (ACHN renal): < 0.01 µM
GI50 (HL-60(TB) leukemia): < 0.01 µM
TGI (HL-60(TB) leukemia): < 0.01 µM
GI50 (NCI/ADR-RES ovarian): 0.0413 µM
TGI (NCI/ADR-RES ovarian): 0.25 µM
GI50 (OVCAR-4 ovarian): < 0.01 µM
TGI (OVCAR-4 ovarian): < 0.01 µM

CC(C)(C)c1cc(NC(=O)Nc2ccc(-c3cn4c(n3)sc3cc(OCCN5CCOCC5)ccc34)cc2)no1
GI50 (KM12 colon): 0.559 µM
TGI (KM12 colon): > 100 µM
GI50 (MALME-3M melanoma): 1.89 µM
TGI (MALME-3M melanoma): > 100 µM
GI50 (SF-539 CNS): 1.08 µM
TGI (SF-539 CNS): 3.17 µM
GI50 (PC-3 prostate): 1.63 µM
TGI (PC-3 prostate): > 100 µM
GI50 (MCF7 breast): 1.04 µM
TGI (MCF7 breast): > 100 µM
GI50 (DU-145 prostate): > 100 µM
TGI (DU-145 prostate): > 100 µM
GI50 (RXF 393 renal): 0.184 µM
TGI (RXF 393 renal): 0.571 µM
GI50 (LOX IMVI melanoma): 2.38 µM
TGI (LOX IMVI melanoma): > 100 µM
GI50 (T-47D breast): 0.094 µM
TGI (T-47D breast): 0.45 µM
GI50 (COLO 205 colon): > 100 µM
TGI (COLO 205 colon): > 100 µM
GI50 (IGROV1 ovarian): 4.98 µM
TGI (IGROV1 ovarian): > 100 µM
GI50 (NCI-H322M lung): 2.99 µM
TGI (NCI-H322M lung): > 100 µM
GI50 (CAKI-1 renal): 3.68 µM
TGI (CAKI-1 renal): > 100 µM
GI50 (A498 renal): 2.11 µM
TGI (A498 renal): 6.48 µM
GI50 (A549 NSCLC): 4.97 µM
TGI (A549 NSCLC): > 100 µM
GI50 (UACC-257 melanoma): 4.09 µM
TGI (UACC-257 melanoma): > 100 µM
GI50 (OVCAR-3 ovarian): 3.03 µM
TGI (OVCAR-3 ovarian): > 100 µM
GI50 (HCT-15 colon): 4.54 µM
TGI (HCT-15 colon): > 100 µM
GI50 (CCRF-CEM leukemia): 0.459 µM
TGI (CCRF-CEM leukemia): > 100 µM
GI50 (OVCAR-5 ovarian): > 100 µM
TGI (OVCAR-5 ovarian): > 100 µM
GI50 (SK-MEL-28 melanoma): 12.4 µM
TGI (SK-MEL-28 melanoma): > 100 µM
GI50 (UO-31 renal): > 100 µM
TGI (UO-31 renal): > 100 µM
GI50 (SF-295 CNS): 1.12 µM
TGI (SF-295 CNS): > 100 µM
GI50 (MOLT-4 leukemia): 0.412 µM
TGI (MOLT-4 leukemia): > 100 µM
GI50 (NCI-H23 lung): 0.684 µM
TGI (NCI-H23 lung): > 100 µM
GI50 (NCI-H226 lung): 3.82 µM
TGI (NCI-H226 lung): > 100 µM
GI50 (HOP-62 NSCLC): 1.27 µM
TGI (HOP-62 NSCLC): 3.54 µM
GI50 (MDA-MB-468 breast): 3.17 µM
TGI (MDA-MB-468 breast): 8.59 µM
GI50 (MDA-MB-435 melanoma): > 100 µM
TGI (MDA-MB-435 melanoma): > 100 µM
GI50 (SNB-75 CNS): 1.41 µM
TGI (SNB-75 CNS): 4.7 µM
GI50 (SK-OV-3 ovarian): 1.67 µM
TGI (SK-OV-3 ovarian): > 100 µM
GI50 (HS 578T breast): 0.461 µM
TGI (HS 578T breast): 3.74 µM
GI50 (HCC-2998 colon): > 100 µM
TGI (HCC-2998 colon): > 100 µM
GI50 (SNB-19 CNS): 3.37 µM
TGI (SNB-19 CNS): > 100 µM
GI50 (SF-268 CNS): 0.584 µM
TGI (SF-268 CNS): 2.55 µM
GI50 (SW-620 colon): > 100 µM
TGI (SW-620 colon): > 100 µM
GI50 (ACHN renal): 7.13 µM
TGI (ACHN renal): > 100 µM
GI50 (HL-60(TB) leukemia): > 100 µM
TGI (HL-60(TB) leukemia): > 100 µM
GI50 (NCI/ADR-RES ovarian): > 100 µM
TGI (NCI/ADR-RES ovarian): > 100 µM
